Assay [1] deals with exsheathed third-stage larvae (xL3s) of H. contortus. The experiment in a line: xL3 motility assay (whole-organism screen and dose-response). The assay is classed as cell-based, Haemonchus contortus. As for the experimental part: (§1) The selenophene and thiophene-core ligands (n = 74) (Additional file 1) were screened at a concentration of 20 μM on exsheathed third-stage larvae (xL3s) of H. contortus in 96-well microculture plates (cat. no. 3635; Corning 3650, Life Sciences, Corning, USA) using relevant control compounds (i.e. moxidectin and monepantel), as described previously. In brief, compounds were dissolved to a stock concentration of 10 mM in either dimethyl sulfoxide (DMSO) or methanol (Sigma-Adrich Scientific, St. Louis, USA). These ligands were then individually diluted to the final concentration of 20 μM using Luria Bertani medium (LB) supplemented with 100 IU/ml of penicillin, 100 μg/ml of streptomycin and 2.5 μg/ml of amphotericin (LB*). Compounds were dispensed (in triplicate) into the wells of a 96-well microculture plate using a multichannel pipette. In addition, the negative controls (LB*, LB* + 0.5 % solvent; six wells each), and positive controls (20 μM of monepantel; Zolvix, Novartis Animal Health, Basel, Switzerland and 20 μM of moxidectin; Cydectin, Virbac, Carros, France; triplicate wells) and xL3s (~300/well) were dispensed into wells of the plate using an automated multichannel pipette (Viaflo Assist/II, Integra Biosciences, Zizers, Switzerland). […], a video recording (5 s) was taken of each well of the 96-well microculture plate (containing xL3s) using a greyscale camera (Rolera Bolt CMOS, Qimaging Scientific, Surrey, Canada) and a motorised X-Y axis stage (BioPoint 2, Ludl Electronics Products, Hawthorne, USA). Individual videos were processed to calculate a motility index (MI) using an algorithm described previously. MIs were normalised to the negative and positive controls (to remove plate-to-plate variation) using the program Prism (v.6 GraphPad Software, USA). Z’-scores were calculated to validate the performance of the screening assay; reliable assays achieve Z’-scores of between 0.5 and 1 [28]. A compound was recorded as having an activity if it reduced xL3 motility by ≥ 70 % following incubation for 72 h. […] Compounds that reduced the motility of xL3s were also tested for their ability to inhibit the motility of L4s (same protocol as for xL3s) and/or to affect the development of xL3s to L4s. Following the measurement of L4 motility, larvae were re-incubated for 4 more days and fixed with 1 % iodine (50 μl). Then, L4 development was assessed based on the presence of a well-developed mouth/pharynx using a light microscope and expressed as a percentage of the total number of larvae examined (n = 30).
(§2) All assays (to assess xL3 motility, L4 development and L4 motility) were performed in triplicate, three times, on separate days.

The test system of assay [2] is fourth-stage larvae (L4s) of H. contortus. Kind of assay: L4 motility assay. The class given is cell-based. The protocol:
as §1, with “[28].” for “[28]. A compound was recorded as having an activity if it reduced xL3 motility by ≥ 70 % following incubation for 72 h.”
as §2

Setting [3] is: Haemonchus contortus, 24 h; read-out: xL3 motility (IC50s in μM).
[4] abbreviates: Haemonchus contortus, 48 h; read-out: xL3 motility (IC50s in μM).
[5] abbreviates: Haemonchus contortus, 72 h, 20 μM, 72 h; percent of motility compared with controls; mean of triplicate ± SEM; read-out: xL3 Motility Index(%).
[6] abbreviates: Haemonchus contortus, 72 h; read-out: xL3 motility (IC50s in μM).
Setting [7] is: Haemonchus contortus; 20 μM, 72 h; read-out: inhibition of xL3 motility in the primary screen.
Where [8] appears, read: Haemonchus contortus, 24 h; read-out: L4 motility (IC50s in μM).
The mark [9] stands for this setting: Haemonchus contortus, 48 h; read-out: L4 motility (IC50s in μM).
Where [10] appears, read: Haemonchus contortus, 72 h; read-out: L4 motility (IC50s in μM).

Where two headings read alike, the source gives them in different places.

Usually inhibition stands for the relative decrease from the control value, in per cent. Take `Oc1ccc(-c2cscc2-c2ccc(O)cc2Cl)c(Cl)c1` [MJ-17]: the IC50 was 25.7 µM in assay [1] (setting [3]); 25.6 µM in assay [1] (setting [4]); 23.8 µM in assay [1] (setting [6]); 23.8 to 25.6 µM in assay [1] (Haemonchus contortus; read-out: xL3 motility IC50 at both 48 h and 72 h); 13.9 µM in assay [2] (setting [8]); 6.2 µM in assay [2] (setting [9]). Besides, the IC50 is 6.1 µM in assay [2] (setting [10]); 6.1 to 6.2 µM in assay [2] (Haemonchus contortus; read-out: L4 motility IC50 at both 48 h and 72 h). Besides, in assay [1] (setting [5]), the activity at 20 µM came out at 20.6 ± 4.9%. For the same compound, the inhibition at 20 µM in assay [1] (setting [7]) was > 70%.
With `Oc1ccc(-c2ccc(-c3ccc(O)cc3Cl)[se]2)c(Cl)c1` [WZY-2], the IC50 in assay [1] (Haemonchus contortus, 24 h, read-out: xL3 motility (IC50s in μM)) came out at 10 µM; in assay [1] (Haemonchus contortus, 48 h, read-out: xL3 motility (IC50s in μM)), 13 µM; in assay [1] (Haemonchus contortus, 72 h, read-out: xL3 motility (IC50s in μM)), 12.1 µM; in assay [2] (Haemonchus contortus, 24 h, read-out: L4 motility (IC50s in μM)), 9.3 µM; in assay [2] (Haemonchus contortus, 48 h, read-out: L4 motility (IC50s in μM)) it was 6.1 µM; in assay [2] (Haemonchus contortus, 72 h, read-out: L4 motility (IC50s in μM)), 6.2 µM. In addition, the inhibition at 20 µM in assay [1] (Haemonchus contortus, 72 h, read-out: inhibition of xL3 motility in the primary screen) was > 70%. In addition, the activity at 20 µM in assay [1] (Haemonchus contortus, 72 h, read-out: xL3 Motility Index(%), 20 μM, 72 h; percent of motility compared with controls; mean of triplicate ± SEM) was determined as 12.3 ± 0.1%.
Consider `Cc1cc(O)ccc1-c1ccc(-c2ccc(O)cc2F)s1` [MJ-22], for which the IC50 in assay [1] (setting [3]) was found to be 6.6 µM; in assay [1] (setting [4]), 7.2 µM; in assay [1] (setting [6]) it was 9.6 µM; in assay [2] (setting [8]), 6.4 µM; in assay [2] (setting [9]), 3.2 µM; in assay [2] (setting [10]) it was 6.2 µM. In addition, the activity at 20 µM in assay [1] (setting [5]) was 6.7 ± 8.2%. In assay [1] (setting [7]), the inhibition at 20 µM is > 70%.
For the compound `C[C@](C#N)(COc1cc(C#N)ccc1C(F)(F)F)NC(=O)c1ccc(SC(F)(F)F)cc1` [Monepantel, reference compound], the IC50 is ~52.1 µM in assay [1] (setting [3]); 6 µM in assay [1] (setting [4]); 0.4 µM in assay [1] (setting [6]); 4.3 µM in assay [2] (setting [8]); 2.2 µM in assay [2] (setting [9]); 3 µM in assay [2] (setting [10]).
`CO/N=C1\C[C@]2(C[C@@H]3C[C@@H](C/C=C(\C)C[C@@H](C)/C=C/C=C4\CO[C@@H]5[C@H](O)C(C)=C[C@@H](C(=O)O3)[C@]45O)O2)O[C@H](/C(C)=C/C(C)C)[C@H]1C` [Moxidectin, reference compound]: the IC50 was 2.5 µM in assay [1] (setting [3]); 2.5 µM in assay [1] (setting [4]); 2.3 µM in assay [1] (setting [6]); 2.2 µM in assay [2] (setting [8]); 0.6 µM in assay [2] (setting [9]); 0.0045 µM in assay [2] (setting [10]).

(Values after publication PMC4910235, “Selenophene and thiophene-core estrogen receptor ligands that inhibit motility and development of parasitic stages of Haemonchus contortus” (Parasites & Vectors, 2016).)
